The record followed here is patent US20060030585A1, “Tricyclic delta-opioid modulators” (priority 2004, published 2006).

Each structure is given as a SMILES string. Where two headings read alike, the source gives them in different places. A value given as a limit tells only on which side of the number the result lay.

One experiment concerns the target delta opioid receptor (Rattus norvegicus, UniProt P33533). The experiment can be described thus: Rat brain delta opioid receptor binding assay ([3H]DPDPE). Particulars: Rat delta opioid receptor binding constant, rat forebrain membranes, ~4 nM [3H]DPDPE. As for the experimental part: Rat Brain Delta Opioid Receptor Binding Assay
Procedure: Male, Sprague Dawley rats (150-250 g, VAF, Charles River, Kingston, N.Y.) were killed by CO2, and their brains removed and placed immediately in ice cold Tris HCl buffer (50 mM, pH 7.4). The forebrains were separated from the remainder of the brain by a coronal transection, beginning dorsally at the colliculi and passing ventrally through the midbrain-pontine junction. After dissection, the forebrains were homogenized in Tris buffer in a Teflon®-glass homogenizer. The homogenate was diluted to a concentration of 1 g of forebrain tissue per 80 mL Tris and centrifuged at 39,000×g for 10 min. The pellet was resuspended in the same volume of Tris buffer containing 5 mM MgCl2 with several brief pulses from a Polytron homogenizer. This particulate preparation was used for the delta opioid binding assays. Following incubation with the delta selective peptide ligand ˜4 nM [^3H]DPDPE at 25° C. for 2.5 h in a 96-well plate with total volume of 1 mL, the plate contents were filtered through Wallac filtermat B sheets on a Tomtec 96-well harvester. The filters were rinsed three times with 2 mL of 10 mM HEPES (pH 7.4), and dried in a 650 W microwave oven for 1.75 min twice. To each sample area 2×50 μL of Betaplate Scint scintillation fluid (LKB) was added and the radioactivity quantified on a LKB (Wallac) 1205 BetaPlate liquid scintillation counter.
Analysis: The data from the scintillation counter were used to calculate either the % inhibition compared to control binding (when only a single concentration of test compound was evaluated) or a Ki value (when a range of concentrations was tested). Percent inhibition was calculated as: [(total dpm-test compound dpm)/(total dpm-nonspecific dpm)]*100. Kd and Ki values were calculated using GraphPad PRISM data analysis program.

The next experiment concerns the target mu opioid receptor (Rattus norvegicus, UniProt P33535). The experiment can be described thus: Rat brain mu opioid receptor binding assay ([3H]DAMGO). Particulars: Rat mu opioid receptor binding constant, rat forebrain membranes, ~0.8 nM [3H]DAMGO. The protocol: Rat Brain Mu Opioid Receptor Binding Assay
Procedure: Male, Sprague Dawley rats (150-250 g, VAF, Charles River, Kingston, N.Y.) were killed by CO2, and their brains removed and placed immediately in ice cold Tris HCl buffer (50 mM, pH 7.4). The forebrains were separated from the remainder of the brain by a coronal transection, beginning dorsally at the colliculi and passing ventrally through the midbrain-pontine junction. After dissection, the forebrains were homogenized in Tris buffer in a Teflon®-glass homogenizer. The homogenate was diluted to a concentration of 1 g of forebrain tissue per 80 mL Tris and centrifuged at 39,000×g for 10 min. The pellet was resuspended in the same volume of Tris buffer containing 5 mM MgCl2 with several brief pulses from a Polytron homogenizer. This particulate preparation was used for the delta opioid binding assays.
Analysis: The data from the scintillation counter were used to calculate either the % inhibition compared to control binding (when only a single concentration of test compound was evaluated) or a Ki value (when a range of concentrations tested). Percent inhibition was calculated as: [(total dpm-test compound dpm)/(total dpm-nonspecific dpm)]*100. Kd and Ki values were calculated using GraphPad PRISM data analysis program.

Experiment [1] deals with T1, delta opioid receptor (NG108-15 cell membranes) (Mus musculus, UniProt P32300).
T1 construct: NG108-15 cell membranes were purchased from Applied Cell Sciences (Rockville, Md.); host or cells: NG108-15 cell membranes (purchased)
T1 sequence (P32300 whole entry): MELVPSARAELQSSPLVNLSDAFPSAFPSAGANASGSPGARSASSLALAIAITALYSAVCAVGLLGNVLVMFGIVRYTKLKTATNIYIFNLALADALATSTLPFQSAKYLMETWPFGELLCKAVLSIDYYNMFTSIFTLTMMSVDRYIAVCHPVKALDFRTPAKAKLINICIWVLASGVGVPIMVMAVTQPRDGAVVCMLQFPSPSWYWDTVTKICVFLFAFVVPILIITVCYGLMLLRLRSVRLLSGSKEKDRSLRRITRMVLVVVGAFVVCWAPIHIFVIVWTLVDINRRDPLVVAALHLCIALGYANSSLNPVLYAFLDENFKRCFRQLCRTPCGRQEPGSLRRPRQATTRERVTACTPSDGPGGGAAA
The experiment can be described thus: [35S]GTPγS binding assay in NG108-15 cell membranes (delta opioid). It counts as biochemical. Particulars: agonist-stimulated [35S]GTPγS binding. As for the experimental part: [^35S]GTPγS Binding Assay in NG108-15 Cell Membranes (delta opioid)
Methods: NG108-15 cell membranes were purchased from Applied Cell Sciences (Rockville, Md.). 8 mg/mL of membrane protein suspended in 10 mM TRIS-HCl pH 7.2, 2 mM EDTA, 10% sucrose. Membranes were maintained at 4-8° C. A 1 mL volume of membranes was added into 10 mL cold binding assay buffer. The assay buffer contained 50 mM Tris, pH 7.6, 5 mM MgCl2, 100 mM NaCl, 1 mM DTT and 1 mM EGTA. The membrane suspension was homogenized twice with a Polytron, and centrifuged at 3000 rpm for 10 min. The supernatant was then centrifuged at 18,000 rpm for 20 min. Ten mL assay buffer was added into the pellet containing tube. The pellet and buffer were mixed with a Polytron.
Incubation procedure: The pellet membranes (75 μg/mL) were preincubated with SPA (10 mg/mL) at 25° C. for 45 min in the assay buffer. […] GTPγS in the same Tris buffer containing 100 μM GDP in total volume of 200 μL. Increasing concentrations of receptor agonists were used to stimulate [35S]-GTPγS binding. The basal binding was tested in the absence of agonists and non-specific binding was tested in the presence of 10 μM unlabeled GTPγS. The data were analyzed on a Packard Top Count.
% of Basal=(stimulated−non specific)*100/(basal−non specific). EC50 value values were calculated using GraphPad Prism.
On the technique in general: GTPγS resists hydrolysis and so accumulates on activated G proteins.

Setting [2] is: NG108-15 cell membranes, read-out: DOR GTPγS EC50.
Setting [3] is: DOR GTPγS EC50, NG108-15 cell membranes.

Chain of delta opioid receptor (P33533 whole entry): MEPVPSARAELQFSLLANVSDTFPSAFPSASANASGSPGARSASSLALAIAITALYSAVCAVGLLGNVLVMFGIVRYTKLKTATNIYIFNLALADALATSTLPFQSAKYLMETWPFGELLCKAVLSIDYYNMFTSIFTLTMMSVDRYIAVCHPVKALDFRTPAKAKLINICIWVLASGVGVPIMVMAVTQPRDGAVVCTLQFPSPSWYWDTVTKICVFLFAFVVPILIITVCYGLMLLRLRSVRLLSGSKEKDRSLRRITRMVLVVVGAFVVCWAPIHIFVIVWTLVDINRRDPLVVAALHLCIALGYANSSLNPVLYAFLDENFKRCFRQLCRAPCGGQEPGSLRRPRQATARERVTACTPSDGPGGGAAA
Chain of mu opioid receptor (P33535 whole entry): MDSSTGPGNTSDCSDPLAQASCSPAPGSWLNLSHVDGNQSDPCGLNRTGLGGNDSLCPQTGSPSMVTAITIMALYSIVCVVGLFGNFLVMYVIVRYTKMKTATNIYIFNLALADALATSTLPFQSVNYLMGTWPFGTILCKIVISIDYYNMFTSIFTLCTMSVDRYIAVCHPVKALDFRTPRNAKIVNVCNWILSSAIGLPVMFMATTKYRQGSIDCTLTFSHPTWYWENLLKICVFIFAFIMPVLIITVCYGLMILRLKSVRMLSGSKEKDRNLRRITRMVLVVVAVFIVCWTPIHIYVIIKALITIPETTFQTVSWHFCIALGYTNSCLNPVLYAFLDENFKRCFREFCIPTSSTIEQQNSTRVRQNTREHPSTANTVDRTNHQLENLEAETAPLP

In general, Ki refers to a measure of affinity in units of concentration, obtained from inhibition or displacement. One may read the EC50 as the midpoint of the concentration-response curve. As to `O=C(NCc1cccc(F)c1)c1ccc2c(c1)Oc1ccccc1C2=C1CC2CCC(C1)N2` [Cpd 11], the values for the inhibition constant (Ki) on delta opioid receptor (read-out: DOR Ki) and on mu opioid receptor (read-out: MOR Ki) were 0.0185 µM and 0.739 µM, respectively. For the same compound, the EC50 in experiment [1] (setting [2]) was found to be 0.209 µM.

On to `O=c1[nH]c(-c2ccc3c(c2)Oc2ccccc2C3=C2CC3CCC(C2)N3)no1` [Cpd 91], for which the Ki at delta opioid receptor (read-out: DOR Ki) was 0.00076 µM; at mu opioid receptor (read-out: MOR Ki), above 10 µM. Also, in experiment [1] (setting [2]), the EC50 came to 0.0722 µM.

`COc1cccc2c1Oc1cc(-c3cccnc3)ccc1C2=C1CC2CCC(C1)N2` [Cpd 71]: the Ki on delta opioid receptor (read-out: DOR Ki) worked out at 0.0057 µM; on mu opioid receptor (read-out: MOR Ki), 1.15 µM. Moreover, in experiment [1] (setting [2]), the EC50 is 1.94 µM.

On to `O=C(NC(CO)Cc1ccccc1)c1ccc2c(c1)Oc1ccccc1C2=C1CC2CCC(C1)N2` (single isomer, unassigned) [Cpd 15], for which the Ki on delta opioid receptor (DOR Ki) worked out at 0.0275 µM; at mu opioid receptor (MOR Ki) it was 0.414 µM. The same compound showed an EC50 in experiment [1] (setting [3]) of 0.079 µM.

As to `COc1cccc2c1Oc1cc(-c3ccccc3NC(C)=O)ccc1C2=C1CC2CCC(C1)N2` [Cpd 108], the Ki at delta opioid receptor (read-out: DOR Ki) came to 0.0339 µM; on mu opioid receptor (read-out: MOR Ki) it was 0.426 µM. For the same compound, the EC50 in experiment [1] (setting [2]) amounted to 0.117 µM.

With `S=c1[nH]c(-c2ccc3c(c2)Oc2ccccc2C3=C2CC3CCC(C2)N3)no1` [Cpd 5, 3-[9-(8-Aza-bicyclo[3.2.1]oct-3-ylidene)-9H-xanthen-3-yl]-4H-[1,2,4]oxadiazole-5-thione], the values for the Ki at delta opioid receptor (DOR Ki) and on mu opioid receptor (MOR Ki) were 0.00689 µM and 1.02 µM, respectively. This compound also came in with an EC50 in experiment [1] (setting [3]) of 0.104 µM.

With `COc1cccc2c1Oc1cc(-c3nnn[nH]3)ccc1C2=C1CC2CCC(C1)N2` [Cpd 82], the inhibition constant Ki at delta opioid receptor (read-out: DOR Ki) turned out to be 0.0056 µM; on mu opioid receptor (read-out: MOR Ki), 0.307 µM. For the same compound, the concentration for a half-maximal effect (EC50) in experiment [1] (setting [2]) amounted to 0.0884 µM.

Take `c1ccc2c(c1)Sc1cc(-c3nnn[nH]3)ccc1C2=C1C[C@H]2CC[C@@H](C1)N2` (single isomer, unassigned) [Cpd 103, (1SR,5RS)-3-[3-(1H-tetrazol-5-yl)-thioxanthen-9-ylidene]-8-aza-bicyclo[3.2.1]octane]: the inhibitory constant (Ki) amounted to 0.0101 µM at delta opioid receptor (DOR Ki) and 0.329 µM on mu opioid receptor (MOR Ki). Further, the EC50 in experiment [1] (setting [3]) was 0.0496 µM.

For the compound `c1ccc2c(c1)Oc1cc(-c3nnn[nH]3)ccc1C2=C1CC2CCC(C1)N2` [Cpd 80], the EC50 in experiment [1] (setting [2]) was 0.226 µM.

As for `CC(=O)Nc1cccc(-c2ccc3c(c2)Oc2ccccc2C3=C2CC3CCC(C2)N3)c1` [Cpd 20], the inhibition constant Ki was determined as 0.0466 µM at delta opioid receptor (DOR Ki) and 2.8 µM at mu opioid receptor (MOR Ki).

Regarding `N#Cc1ccc2c(c1)Sc1ccccc1C2=C1CC2CCC(C1)N2` [Cpd 85, 9-(8-Aza-bicyclo[3.2.1]oct-3-ylidene)-9H-thioxanthene-3-carbonitrile], the Ki was 0.629 µM at delta opioid receptor (DOR Ki) and 2.31 µM on mu opioid receptor (MOR Ki).

For `NC(=NO)c1ccc2c(c1)Oc1ccccc1C2=C1CC2CCC(C1)N2` [Cpd 24], the Ki on delta opioid receptor (DOR Ki) was found to be 0.0768 µM; at mu opioid receptor (MOR Ki), 0.621 µM.

Turning to `CCN(CC)C(=N)c1ccc2c(c1)Oc1ccccc1C2=C1CC2CCC(C1)N2` [Cpd 9, 9-(8-Aza-bicyclo[3.2.1]oct-3-ylidene)-N,N-diethyl-9H-xanthene-3-carboxamidine], the Ki amounted to 0.014 µM on delta opioid receptor (DOR Ki) and 3.54 µM on mu opioid receptor (MOR Ki).

For `O=C(O)c1ccc2c(c1)Oc1ccccc1C2=C1CC2CCC(C1)N2` [Cpd 72], the figures for the Ki at delta opioid receptor (read-out: DOR Ki) and on mu opioid receptor (read-out: MOR Ki) were 0.216 µM and 1.96 µM, respectively.

For the compound `c1cncc(-c2ccc3c(c2)Sc2ccccc2C3=C2CC3CCC(C2)N3)c1` [Cpd 112, 3-(3-Pyridin-3-yl-thioxanthen-9-ylidene)-8-aza-bicyclo[3.2.1]octane], the results for the inhibition constant (Ki) on delta opioid receptor (DOR Ki) and on mu opioid receptor (MOR Ki) were 0.481 µM and 1.01 µM, respectively.

Consider `c1ccc(Sc2ccc3c(c2)Sc2ccccc2C3=C2CC3CCC(C2)N3)cc1` [Cpd 83, 3-(3-Phenylsulfanyl-thioxanthen-9-ylidene)-8-aza-bicyclo[3.2.1]octane], for which the Ki at delta opioid receptor (DOR Ki) is 8.51 µM; at mu opioid receptor (MOR Ki), above 10 µM.

With `CN(CCc1ccccc1)C(=O)c1ccc2c(c1)Oc1ccccc1C2=C1CC2CCC(C1)N2` [Cpd 17], the inhibition constant (Ki) at delta opioid receptor (DOR Ki) and on mu opioid receptor (MOR Ki) was 0.037 µM each time.

As for `CC(=O)Nc1ccccc1-c1ccc2c(c1)Sc1ccccc1C2=C1CC2CCC(C1)N2C` [Cpd 118], the Ki stood at 0.612 µM on delta opioid receptor (read-out: DOR Ki) and 2.07 µM at mu opioid receptor (read-out: MOR Ki).
